Values after ≈ are worked out from the molar mass of the structure shown.
System: Mycobacterium tuberculosis
Test: Antimycobacterial activity against Mycobacterium tuberculosis H37Rv by agar dilution method
Format: functional

Structure (SMILES) | MIC [µM]
CCOc1nc(-c2ccc(Cl)cc2)c(Sc2ccc(OC)cc2)c(-c2ccc(N(C)C)cc2)c1C#N | 48.5 (≈ 25 µg/mL)
CCOc1nc(-c2ccc(Cl)cc2)c(Sc2ccc(Cl)cc2)c(-c2ccccc2)c1C#N | 13.1 (≈ 6.25 µg/mL)
CCOc1nc(-c2ccc(Cl)cc2)c(Sc2ccc(C)cc2)c(-c2ccccc2)c1C#N | 54.8 (≈ 25 µg/mL)
CCOc1nc(-c2ccc(Br)cc2)c(Sc2ccc(Cl)cc2)c(-c2ccc(N(C)C)cc2)c1C#N | 5.6 (≈ 3.16 µg/mL)
COc1nc(-c2ccccc2)c(Sc2ccc(Cl)cc2)c(-c2ccc(N(C)C)cc2)c1C#N | 26.5 (≈ 12.5 µg/mL)
CCOc1nc(-c2ccc(Cl)cc2)c(SC2CCCCC2)c(-c2ccc(C)cc2)c1C#N | 27 (≈ 12.5 µg/mL)
CCOc1nc(-c2ccc([N+](=O)[O-])cc2)c(SC2CCCCC2)c(-c2ccccc2)c1C#N | 6.8 (≈ 3.13 µg/mL)
COc1nc(-c2ccc(Cl)cc2)c(SC2CCCCC2)c(-c2ccc(Cl)cc2)c1C#N | 13.3 (≈ 6.24 µg/mL)
COc1nc(-c2ccc(Cl)cc2)c(SC2CCCCC2)c(-c2ccc(N(C)C)cc2)c1C#N | 13.1 (≈ 6.26 µg/mL)
CCOc1nc(-c2ccc(Cl)cc2)c(Sc2ccc(C)cc2)c(-c2ccc(OC)cc2)c1C#N | 51.3 (≈ 25 µg/mL)
COc1nc(-c2ccc(Cl)cc2)c(Sc2ccc(Cl)cc2)c(-c2ccccc2)c1C#N | 27.1 (≈ 12.6 µg/mL)
CCOc1nc(-c2ccccc2)c(SC2CCCCC2)c(-c2ccccc2)c1C#N | 25 (≈ 10.4 µg/mL)
CCOc1nc(-c2ccc(Cl)cc2)c(SC2CCCCC2)c(-c2ccccc2)c1C#N | 27.8 (≈ 12.5 µg/mL)
CCOc1nc(-c2ccc(Cl)cc2)c(SC2CCCCC2)c(-c2ccc(Cl)cc2)c1C#N | 6.5 (≈ 3.14 µg/mL)
CCOc1nc(-c2ccc(C)cc2)c(SC2CCCCC2)c(-c2ccc(N(C)C)cc2)c1C#N | 26.5 (≈ 12.5 µg/mL)
CCOc1nc(-c2ccc(Cl)cc2)c(Sc2ccccc2)c(-c2ccc(Cl)cc2)c1C#N | 26.2 (≈ 12.5 µg/mL)
CCOc1nc(-c2ccc(OC)cc2)c(Sc2ccc(Cl)cc2)c(-c2ccc(N(C)C)cc2)c1C#N | 24.2 (≈ 12.5 µg/mL)

Structure (SMILES) | MIC [µM]
CCOc1nc(-c2ccc([N+](=O)[O-])cc2)c(SC2CCCCC2)c(-c2ccc(N(C)C)cc2)c1C#N | 12.5 (≈ 6.28 µg/mL)
CCOc1nc(-c2ccc(Cl)cc2)c(SC2CCCCC2)c(-c2ccc(N(C)C)cc2)c1C#N | 25.4 (≈ 12.5 µg/mL)
COc1nc(-c2ccc(Cl)cc2)c(SC2CCCCC2)c(-c2ccccc2)c1C#N | 57.6 (≈ 25.1 µg/mL)
COc1nc(-c2ccc(Cl)cc2)c(SC2CCCCC2)c(-c2ccccc2Cl)c1C#N | 13.3 (≈ 6.24 µg/mL)
CCOc1nc(-c2ccc(Cl)cc2)c(Sc2ccccc2)c(-c2ccc(N(C)C)cc2)c1C#N | > 51.4
CCOc1nc(-c2ccc(Cl)cc2)c(Sc2ccc(C)cc2)c(-c2ccc(Cl)cc2)c1C#N | 25.5 (≈ 12.5 µg/mL)
COc1nc(-c2ccccc2)c(Sc2ccc(Cl)cc2)c(-c2ccc(Cl)cc2)c1C#N | 27 (≈ 12.5 µg/mL)
COc1nc(-c2ccc(Cl)cc2)c(Sc2ccc(Cl)cc2)c(-c2ccc(N(C)C)cc2)c1C#N | 12.4 (≈ 6.28 µg/mL)
CCOc1nc(-c2ccc(Cl)cc2)c(Sc2ccc(C)cc2)c(-c2ccc(N(C)C)cc2)c1C#N | > 50
COc1nc(-c2ccc(Cl)cc2)c(Sc2ccc(Cl)cc2)c(-c2ccc(Cl)cc2)c1C#N | 3.1 (≈ 1.54 µg/mL)
COc1ccc(-c2c(C#N)c(OC)nc(-c3ccc(Cl)cc3)c2Sc2ccc(Cl)cc2)cc1 | 25.4 (≈ 12.5 µg/mL)
COc1ccc(-c2c(C#N)c(OC)nc(-c3ccc(Cl)cc3)c2SC2CCCCC2)cc1 | 26.9 (≈ 12.5 µg/mL)
COc1nc(-c2ccc(Cl)cc2)c(SC2CCCCC2)c(-c2ccc(C)cc2)c1C#N | 28 (≈ 12.6 µg/mL)
CC[C@@H](CO)NCCN[C@@H](CC)CO [ETHAMBUTOL] | 7.6 (≈ 1.55 µg/mL)
NNC(=O)c1ccncc1 [ISONIAZID] | 0.4 (≈ 0.0549 µg/mL)
NC(=O)c1cnccn1 [PYRAZINAMIDE] | 50.8 (≈ 6.25 µg/mL)

— ChEMBL document CHEMBL1155480, “Selective one-pot multicomponent synthesis and anti-tubercular evaluation of 5-(aryl/cyclohexylsulfanyl)-2-alkoxy-4,6-diarylnicotinonitriles” (2010)
